Reference: the NIST ThermoML archive (doi:10.1016/j.jct.2012.03.013)

How the values were obtained:
[1] = refractive index (Na D-line) (dimensionless); conditions: 298.15 K; 101.33 kPa; Liquid; Standard Abbe refractometry
[2] = Liquid; for speed of sound: Pulse-echo method
[3] = molar heat capacity at constant pressure; conditions: Liquid, Acoustic Method

OCCCCO [1,4-butanediol]
Conditions | refractive index
[1] | 1.4447

[2]
Conditions | mass density [kg/m3]
293.15 K, 100 kPa, Acoustic method | 1015.74
293.15 K, 101.33 kPa, Vibrating tube method | 1015.74
298.15 K, 100 kPa, Acoustic method | 1012.78
298.15 K, 101.33 kPa, Vibrating tube method | 1012.78
298.15 K, 10000 kPa, Acoustic method | 1016.99
298.15 K, 20000 kPa, Acoustic method | 1021.1
298.15 K, 30000 kPa, Acoustic method | 1025.06
298.15 K, 40000 kPa, Acoustic method | 1028.89
303.14 K, 101.33 kPa, Vibrating tube method | 1009.78
303.15 K, 100 kPa, Acoustic method | 1009.77
303.15 K, 10000 kPa, Acoustic method | 1014.06
303.15 K, 20000 kPa, Acoustic method | 1018.23
303.15 K, 30000 kPa, Acoustic method | 1022.25
303.15 K, 40000 kPa, Acoustic method | 1026.13
303.15 K, 50000 kPa, Acoustic method | 1029.88
303.15 K, 60000 kPa, Acoustic method | 1033.51
303.15 K, 70000 kPa, Acoustic method | 1037.04
303.15 K, 80000 kPa, Acoustic method | 1040.47
303.15 K, 90000 kPa, Acoustic method | 1043.8
308.15 K, 100 kPa, Acoustic method | 1006.76
308.15 K, 101.33 kPa, Vibrating tube method | 1006.76
308.15 K, 10000 kPa, Acoustic method | 1011.12
308.15 K, 20000 kPa, Acoustic method | 1015.35
308.15 K, 30000 kPa, Acoustic method | 1019.42
308.15 K, 40000 kPa, Acoustic method | 1023.35
308.15 K, 50000 kPa, Acoustic method | 1027.15
308.15 K, 60000 kPa, Acoustic method | 1030.83
308.15 K, 70000 kPa, Acoustic method | 1034.41
308.15 K, 80000 kPa, Acoustic method | 1037.87
308.15 K, 90000 kPa, Acoustic method | 1041.25
308.15 K, 100000 kPa, Acoustic method | 1044.53
313.14 K, 101.33 kPa, Vibrating tube method | 1003.72
313.15 K, 100 kPa, Acoustic method | 1003.73
313.15 K, 10000 kPa, Acoustic method | 1008.15
313.15 K, 20000 kPa, Acoustic method | 1012.44
313.15 K, 30000 kPa, Acoustic method | 1016.57
313.15 K, 40000 kPa, Acoustic method | 1020.56
313.15 K, 50000 kPa, Acoustic method | 1024.41
313.15 K, 60000 kPa, Acoustic method | 1028.14
313.15 K, 70000 kPa, Acoustic method | 1031.76
313.15 K, 80000 kPa, Acoustic method | 1035.27
313.15 K, 90000 kPa, Acoustic method | 1038.68
313.15 K, 100000 kPa, Acoustic method | 1042
318.15 K, 100 kPa, Acoustic method | 1000.67
318.15 K, 101.33 kPa, Vibrating tube method | 1000.67
318.15 K, 10000 kPa, Acoustic method | 1005.17
318.15 K, 20000 kPa, Acoustic method | 1009.52
318.15 K, 30000 kPa, Acoustic method | 1013.71
318.15 K, 40000 kPa, Acoustic method | 1017.75
318.15 K, 50000 kPa, Acoustic method | 1021.65
318.15 K, 60000 kPa, Acoustic method | 1025.43
318.15 K, 70000 kPa, Acoustic method | 1029.09
318.15 K, 80000 kPa, Acoustic method | 1032.64
318.15 K, 90000 kPa, Acoustic method | 1036.09
318.15 K, 100000 kPa, Acoustic method | 1039.45
323.15 K, 101.33 kPa, Vibrating tube method | 997.61
328.15 K, 101.33 kPa, Vibrating tube method | 994.53
333.15 K, 101.33 kPa, Vibrating tube method | 991.44
338.15 K, 101.33 kPa, Vibrating tube method | 988.31
343.14 K, 101.33 kPa, Vibrating tube method | 985.17
348.15 K, 101.33 kPa, Vibrating tube method | 982.01
353.15 K, 101.33 kPa, Vibrating tube method | 978.82

Conditions | molar heat capacity at constant pressure [J/K/mol] | speed of sound [m/s]
[2], 298.07 K, 15200 kPa | – | 1649.2
[2], 298.07 K, 30390 kPa | – | 1693.3
[2], 298.08 K, 45590 kPa | – | 1735.4
[2], 298.11 K, 100 kPa | – | 1602.1
[2], 298.15 K, 101.33 kPa | – | 1601.8
[2], 303.15 K, 101.33 kPa | – | 1589.9
[2], 303.15 K, 60790 kPa | – | 1763.6
[2], 303.15 K, 70920 kPa | – | 1789.3
[2], 303.15 K, 75990 kPa | – | 1801.9
[2], 303.15 K, 91180 kPa | – | 1837.8
[2], 303.16 K, 30390 kPa | – | 1682.4
[2], 303.16 K, 45590 kPa | – | 1724.1
[2], 303.16 K, 50660 kPa | – | 1738
[2], 303.17 K, 100 kPa | – | 1590.2
[2], 303.17 K, 15200 kPa | – | 1637.6
[2], 308.14 K, 15200 kPa | – | 1626.6
[2], 308.14 K, 30390 kPa | – | 1671.6
[2], 308.14 K, 45590 kPa | – | 1713.7
[2], 308.14 K, 75990 kPa | – | 1792
[2], 308.14 K, 91180 kPa | – | 1828.2
[2], 308.14 K, 101320 kPa | – | 1851.7
[2], 308.15 K, 100 kPa | – | 1578.4
[2], 308.15 K, 101.33 kPa | – | 1578.5
[2], 308.15 K, 60790 kPa | – | 1753.3
[2], 313.09 K, 15200 kPa | – | 1614.6
[2], 313.09 K, 30390 kPa | – | 1660.5
[2], 313.1 K, 45590 kPa | – | 1703
[2], 313.1 K, 60790 kPa | – | 1743.5
[2], 313.1 K, 75990 kPa | – | 1782
[2], 313.1 K, 91180 kPa | – | 1819
[2], 313.1 K, 101320 kPa | – | 1842.1
[2], 313.12 K, 100 kPa | – | 1567
[2], 313.15 K, 101.33 kPa | – | 1566.7
[2], 318.15 K, 101.33 kPa | – | 1555.2
[2], 318.17 K, 30390 kPa | – | 1649.8
[2], 318.17 K, 45590 kPa | – | 1692.6
[2], 318.17 K, 60790 kPa | – | 1733.4
[2], 318.17 K, 75990 kPa | – | 1772
[2], 318.18 K, 15200 kPa | – | 1603.3
[2], 318.18 K, 91180 kPa | – | 1809.4
[2], 318.18 K, 101320 kPa | – | 1832.7
[2], 318.2 K, 100 kPa | – | 1555.3
[3], 298.15 K, 10000 kPa | 202.7 | –
[3], 298.15 K, 20000 kPa | 202.4 | –
[3], 298.15 K, 30000 kPa | 202 | –
[3], 298.15 K, 40000 kPa | 201.7 | –
[3], 303.15 K, 10000 kPa | 205.5 | –
[3], 303.15 K, 20000 kPa | 205.1 | –
[3], 303.15 K, 30000 kPa | 204.7 | –
[3], 303.15 K, 40000 kPa | 204.4 | –
[3], 303.15 K, 50000 kPa | 204.1 | –
[3], 303.15 K, 60000 kPa | 203.8 | –
[3], 303.15 K, 70000 kPa | 203.5 | –
[3], 303.15 K, 80000 kPa | 203.2 | –
[3], 303.15 K, 90000 kPa | 202.9 | –
[3], 308.15 K, 10000 kPa | 208.3 | –
[3], 308.15 K, 20000 kPa | 207.9 | –
[3], 308.15 K, 30000 kPa | 207.6 | –
[3], 308.15 K, 40000 kPa | 207.2 | –
[3], 308.15 K, 50000 kPa | 206.9 | –
[3], 308.15 K, 60000 kPa | 206.6 | –
[3], 308.15 K, 70000 kPa | 206.3 | –
[3], 308.15 K, 80000 kPa | 206 | –
[3], 308.15 K, 90000 kPa | 205.7 | –
[3], 308.15 K, 100000 kPa | 205.4 | –
[3], 313.15 K, 10000 kPa | 211.2 | –
[3], 313.15 K, 20000 kPa | 210.8 | –
[3], 313.15 K, 30000 kPa | 210.4 | –
[3], 313.15 K, 40000 kPa | 210.1 | –
[3], 313.15 K, 50000 kPa | 209.7 | –
[3], 313.15 K, 60000 kPa | 209.4 | –
[3], 313.15 K, 70000 kPa | 209.1 | –
[3], 313.15 K, 80000 kPa | 208.8 | –
[3], 313.15 K, 90000 kPa | 208.5 | –
[3], 313.15 K, 100000 kPa | 208.2 | –
[3], 318.15 K, 10000 kPa | 214.2 | –
[3], 318.15 K, 20000 kPa | 213.8 | –
[3], 318.15 K, 30000 kPa | 213.4 | –
[3], 318.15 K, 40000 kPa | 213 | –
[3], 318.15 K, 50000 kPa | 212.7 | –
[3], 318.15 K, 60000 kPa | 212.3 | –
[3], 318.15 K, 70000 kPa | 212 | –
[3], 318.15 K, 80000 kPa | 211.7 | –
[3], 318.15 K, 90000 kPa | 211.4 | –
[3], 318.15 K, 100000 kPa | 211.1 | –
